How the values were obtained:
Assay type in all cases: cell-based
[1] = system: Hela cells; assay: Transfection of Hela cell line, DNA vectors; conditions: 75 ng plasmid DNA, GFP cells / total cells
Procedure: 1. The compound (0.01 mmol) prepared in Example 1 was dissolved in 1 mL of anhydrous ethanol. After ultrasonically dissolved, 10 μL of the resultant amino lipid solution in ethanol was taken and mixed with 5 μL of DOPE solution in ethanol (0.01 m), and then to the obtained mixture was added 35 μL of 0.2M sodium acetate buffer (pH 5.6), and 50 μL of liposome solution was prepared by vortex at a constant rotating speed for 30 s. 4 μL was taken from the 50 μL liposome solution and added to 46 μL of 0.02M sodium acetate buffer (pH 5.6), and the final liposome solution was formed by vortex at a constant rotating speed for 30 s. 5 μL was taken from the final liposome solution and mixed with 75 ng plasmid DNA (psin-EGFP-IRES-Puro, Clontech) dissolved in 5 μL of 0.02 M sodium acetate buffer, and was allowed to stay at room temperature for 30 min to form a lipid/DNA transfection complex.
2. 10 μL of the lipid/DNA transfection complex was incubated at room temperature for 30 min, followed by addition of 90 μL of fresh resuspended cells (3-5×10^4 cells) and mixing with a pipette. 100 μL of cells+lipid/DNA complex was transferred to separate wells of a 96-well culture plate immediately, and placed in an incubator containing 5% CO2 at 37° C.
3. Hoechst33258 (Invitrogen) was added at a final concentration of 0.2 μg/mL to the cells 20 to 24 hours after initial cell transfection, and cultured in darkness at 37° C. for 15 min. Afterwards, the cells were washed once with a PBS solution, and then added with medium for culture for 20 to 24 h.
4. The cells were placed in a high-throughput confocal microscope (Molecular Devices ImageXpress), and four visual fields of the image of the cells were captured for each well, and images at three laser wavelengths were captured for each sample: bright field images of cells (FIG. 2(a) and FIG. 2(b)), Hoechst-staining images showing total nuclei (FIG. 2(c) and FIG. 2(d)) and GFP images showing success in transfection with the plasmid DNA and the expression of GFP (FIG. 2(e) and FIG. 2(f)). MetaXpress software was used to separately count the cells in the Hoechst-staining images and GFP images, and then the number of cells expressing GFP was divided by the total number of nuclei to give the absolute cell transfection efficiency. The absolute transfection efficiency was calculated as follows: […]
(§1) Cell line: Hela cells (ATCC 35241)
(§2) Medium: DMEM supplemented with 10% fetal bovine serum (Invitrogen)
(§3) Screening: cell transfection on 96-well plates
Detection (readout): percentage of the number of GFP fluorescent cells relative to the total number of cells (the total number of cells was determined using nucleus dye Hoechst). Lipofectamine2000 (Invitrogen) was used as the positive control, according to the manufacturer's instructions.
Method: the experimental method was basically the same with Example 4.

[2] = system: Hela cells; assay: Transfection of Hela cell line, mRNA vectors; conditions: 50 ng EGFP mRNA per well
Procedure: as §1, §2, §3
Detection (readout): percentage of the number of GFP fluorescent cells relative to the total number of cells (the total number of cells was determined using nucleus dye Hoechst). A commercially available liposome transfection reagent Lipofectamine2000 (Invitrogen) was used as the positive control group, according to the manufacturer's instructions.
Method: the experimental method was basically the same with Example 4, and the mass of EGFP mRNA for transfection was 50 ng per well.

[3] = system: HEK293 cells; assay: Preliminary screening as DNA vectors, GFP transfection of HEK293 cells; conditions: HEK293 cells; lipid/DOPE liposome with 75 ng plasmid DNA (psin-EGFP-IRES-Puro); number of cells expressing GFP divided by total number of nuclei (Hoechst)
Method in brief: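 HEK293 cells in DMEM/10% FBS transfected with 75 ng EGFP plasmid per well complexed with amino lipid/DOPE liposomes in pH 5.6 sodium acetate. Hoechst nuclear stain added 20-24 h post-transfection, then cells cultured another 20-24 h. Confocal imaging gives GFP-positive cells as % of total nuclei.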

[4] = system: HEK293 cells; assay: Preliminary screening as mRNA vectors, EGFP mRNA transfection of HEK293 cells; conditions: HEK293 cells, 96-well plates, EGFP mRNA 50 ng per well; percentage of GFP fluorescent cells relative to total number of cells (Hoechst)
Method in brief: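 HEK293 cells in DMEM plus 10% FBS transfected in 96-well format with 50 ng EGFP mRNA per well; Lipofectamine2000 served as positive control. Read-out is the percentage of GFP-fluorescent cells among total cells, counted by Hoechst nuclear stain.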

Row | SMILES | Absolute DNA transfection efficiency in Hela cells [1] [%] | Absolute mRNA transfection efficiency in Hela cells [2] [%] | Absolute DNA transfection efficiency in HEK293 cells [3] [%] | Absolute mRNA transfection efficiency in HEK293 cells [4] [%]
1 | CCCCCCCCCCCCNc1nc(NCCN2CCOCC2)nc(SCCCCCCCCC)n1 [Compound S9N12D2] | 6.5 | 6.5 | – | –
2 | CCCCCCCCCCCCNc1nc(NCCN2CCCCC2)nc(SCCCCCCCCC)n1 [Compound S9N12D4] | 4.1 | 4.1 | – | –
3 | CCCCCCCCCCCCNc1nc(NCCN(CC)CC)nc(SCCCCCCCCC)n1 [Compound S9N12D7] | 6.8 | 6.8 | – | –
4 | CCCCCCCCCCCCSc1nc(NCCN(C)C)nc(SCCCCCCCCC)n1 [Compound S9S12D1] | 7.9 | 7.9 | 14.6 | 0.8
5 | CCCCCCCCCCCCSc1nc(NCCN2CCOCC2)nc(SCCCCCCCCC)n1 [Compound S9S12D2] | 8.5 | 8.5 | 16.7 | 0.0
6 | CCCCCCCCCCCCSc1nc(NCCN2CCCCC2)nc(SCCCCCCCCC)n1 [Compound S9S12D4] | 0.0 | 0.0 | 0.0 | 0.6
7 | CCCCCCCCCCCCSc1nc(NCCN(CC)CC)nc(SCCCCCCCCC)n1 [Compound S9S12D7] | 2.7 | 2.7 | 5.3 | 3.4
8 | CCCCCCCCCCCCCCSc1nc(NCCN(C)C)nc(SCCCCCCCCC)n1 [Compound S9S14D1] | 1.4 | 1.4 | 2.1 | 1.6
9 | CCCCCCCCCCCCCCSc1nc(NCCN2CCOCC2)nc(SCCCCCCCCC)n1 [Compound S9S14D2] | 7.3 | 7.3 | 14.3 | 0.3
10 | CCCCCCCCCCCCCCSc1nc(NCCN2CCCCC2)nc(SCCCCCCCCC)n1 [Compound S9S14D4] | 3.6 | 3.6 | 7.2 | 0.7
11 | CCCCCCCCCCCCCCSc1nc(NCCN(CC)CC)nc(SCCCCCCCCC)n1 [Compound S9S14D7] | 6.5 | 6.2 | 12.5 | 1.5
12 | CCCCCCCCCCCCCCCSc1nc(NCCN(C)C)nc(SCCCCCCCCC)n1 [Compound S9S15D1] | 1.3 | 1.3 | 2.1 | 0.0
13 | CCCCCCCCCCCCCCCSc1nc(NCCN2CCOCC2)nc(SCCCCCCCCC)n1 [Compound S9S15D2] | 5.9 | 5.9 | 10.6 | 0.0
14 | CCCCCCCCCCCCCCCSc1nc(NCCN2CCCCC2)nc(SCCCCCCCCC)n1 [Compound S9S15D4] | 5.8 | 5.8 | 11.8 | 2.1
15 | CCCCCCCCCCCCCCCSc1nc(NCCN(CC)CC)nc(SCCCCCCCCC)n1 [Compound S9S15D7] | 2.8 | 2.8 | 5.0 | 1.2
16 | CCCCCCCCCCCSc1nc(NCCCCCCC)nc(NCCN(C)C)n1 [Compound S11N7D1] | 13.9 | 13.9 | – | –
17 | CCCCCCCCCCCSc1nc(NCCCCCCC)nc(NCCN2CCOCC2)n1 [Compound S11N7D2] | 5.8 | 5.8 | – | –
18 | CCCCCCCCCCCSc1nc(NCCCCCCC)nc(NCCN2CCCCC2)n1 [Compound S11N7D4] | 2.3 | 2.3 | – | –
19 | CCCCCCCCCCCSc1nc(NCCCCCCC)nc(NCCN(CC)CC)n1 [Compound S11N7D7] | 5.8 | 5.8 | – | –
20 | CCCCCCCCCCCSc1nc(NCCCCCCCC)nc(NCCN(C)C)n1 [Compound S11N8D1] | 9.9 | 9.9 | – | –
21 | CCCCCCCCCCCSc1nc(NCCCCCCCC)nc(NCCN2CCOCC2)n1 [Compound S11N8D2] | 9.3 | 9.3 | – | –
22 | CCCCCCCCCCCSc1nc(NCCCCCCCC)nc(NCCN2CCCCC2)n1 [Compound S11N8D4] | 2.9 | 2.9 | – | –
23 | CCCCCCCCCCCSc1nc(NCCCCCCCC)nc(NCCN(CC)CC)n1 [Compound S11N8D7] | 5.7 | 5.7 | – | –
24 | CCCCCCCCCCCSc1nc(NCCCCCCCCC)nc(NCCN(C)C)n1 [Compound S11N9D1] | 6.0 | 6.0 | – | –
25 | CCCCCCCCCCCSc1nc(NCCCCCCCCC)nc(NCCN2CCOCC2)n1 [Compound S11N9D2] | 6.8 | 6.8 | – | –
26 | CCCCCCCCCCCSc1nc(NCCCCCCCCC)nc(NCCN2CCCCC2)n1 [Compound S11N9D4] | 0.5 | 0.5 | – | –
27 | CCCCCCCCCCCSc1nc(NCCCCCCCCC)nc(NCCN(CC)CC)n1 [Compound S11N9D7] | 0.9 | 0.9 | – | –

From patent US20230123334A1, “AMINO LIPID COMPOUND, PREPARATION METHOD THEREFOR, AND APPLICATION THEREOF” (SHENZHEN SHENXIN BIOTECHNOLOGY CO., LTD., priority 2020, published 2023)
